pIC50: −log10 of the molar value. Like-named read-outs stand apart in the source and are kept apart here.
Experiments:
[1] = test system: Aβ40 in conditioned medium of cells stably expressing Amyloid Precursor Protein (APP); assay: In vitro BACE cell-based assay (Aβ40 in conditioned medium, sandwich ELISA); settings: Homo sapiens; for pIC50: read-out: HEK cell assay
How it was run: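 Quantification relied on pAb40/6E10 sandwich ELISA with Europium fluorescence counts, and IC50 was fitted versus concentration.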

[2] = test system: Abeta 40 in cerebrospinal fluid (CSF) and brain; assay: In vivo inhibition of beta-secretase (Abeta 40 reduction in CSF and brain); settings: rat, Abeta 40, 10 mg/kg (10 mpk), after 4 hrs
Text: In Vivo Inhibition of Beta-Secretase
Several animal models, including mouse, rat, dog, and monkey, may be used to screen for inhibition of beta-secretase activity in vivo following administration of a test compound sample. Animals used in this invention can be wild type, transgenic, or gene knockout animals. […] A separate group of animals receive 2% hydroxypropyl methylcellulose, 1% Tween80 alone, containing no test compound, and serve as a vehicle-control group. At the end of the test period, animals are sacrificed and brain tissues, plasma or cerebrospinal fluid are collected. […] Homogenates are centrifuged at 355,000 g, 4° C. for 30 minutes. CSF or brain supernatants are then analyzed for the presence of A-beta peptide by specific sandwich ELISA assays based on ECL (Electrochemiluminescence) technology. For example, rat Abeta40 is measured using biotinylated-4G8 (Signet) as a capture antibody and Fab40 (an in-house antibody specific to the C-terminal of Abeta40) as a detection antibody.
Actual vehicles used: Oral: 2% HPMC, 1% Tween80, pH 2.2

[3] = molecular target: Beta Secretase enzyme (BACE) (Homo sapiens, UniProt P56817); assay: In vitro enzymatic BACE FRET (fluorescence resonance energy transfer) assay; type: biochemical; settings: for IC50: BACE 1 FRET assay (uM); for pIC50: average IC50, enzyme assay, read-out: BACE 1 FRET assay
Chain of Beta Secretase enzyme (BACE) (P56817 46-501, species assumed): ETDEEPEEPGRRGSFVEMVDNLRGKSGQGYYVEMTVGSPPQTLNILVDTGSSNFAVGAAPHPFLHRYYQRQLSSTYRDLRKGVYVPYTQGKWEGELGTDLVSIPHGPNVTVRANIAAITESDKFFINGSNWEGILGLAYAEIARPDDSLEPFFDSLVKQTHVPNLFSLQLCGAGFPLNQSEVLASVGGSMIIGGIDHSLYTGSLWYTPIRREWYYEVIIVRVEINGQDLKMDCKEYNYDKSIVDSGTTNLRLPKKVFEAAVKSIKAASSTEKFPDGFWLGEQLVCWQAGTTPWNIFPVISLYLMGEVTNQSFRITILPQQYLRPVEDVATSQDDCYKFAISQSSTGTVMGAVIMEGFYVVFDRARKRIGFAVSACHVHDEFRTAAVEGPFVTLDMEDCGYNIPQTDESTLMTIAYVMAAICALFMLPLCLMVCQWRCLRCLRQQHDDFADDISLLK
How it was run: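 Buffer 0.05 M acetate pH 4.2, 10% DMSO final, 100 uM genapol (sub-CMC); start with 50 nM FRET substrate; 1 h incubation; Tris stop; fluorescence read.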

[4] = CSF, read-out: CSF A-beta reduction % at 10 mg/kg
[5] = brain, read-out: Brain A-beta reduction % at 10 mg/kg
[6] = HEK293, average IC50, HEK cells

pIC50 [1, 6]	pIC50 [3]	pIC50 ([1]; HEK293, average IC50)	SMILES	IC50 ([1]; HEK293, read-out: HEK cell assay (uM), average IC50, HEK cells)	inhibition in vivo at 10 mg/kg [2, 4]	inhibition in vivo at 10 mg/kg [2, 5]	IC50 [3]	IC50 ([1]; HEK293, read-out: HEK cell assay (uM), average IC50, HEK cell assay)
–	–	–	NC1=N[C@@]2(CO1)c1cc(-c3cccnc3F)c(F)cc1Oc1c(F)cc(C3=CCOCC3)cc12 (single isomer, unassigned) [Example 867]	0.005 µM	56%	39%	0.0003 µM	–
8.00	9.30	–	NC1=N[C@@]2(CO1)c1cc(-c3cccnc3F)c(F)cc1Oc1c(F)cc(N3CCOCC3)cc12 (single isomer, unassigned) [Example 869]	–	61%	44%	–	–
–	9.70	7.89	NC1=N[C@@]2(CS1)c1cc(-c3cccnc3F)ccc1Oc1c2cc(-c2ccnc(F)c2)nc1F (single isomer, unassigned) [Example 996]	–	55%	43%	–	–
–	–	–	NC1=N[C@@]2(CO1)c1cc(-c3c(F)ccnc3F)ccc1Oc1cnc(C3=CCOCC3)cc12 [Example 89, (5S)-7-(2,4-difluoro-3-pyridinyl)-3-(3,6-dihydro-2H-pyran-4-yl)spiro[chromeno[2,3-c]pyridine-5,4′-[1,3]oxazol]-2′-amine]	–	80%	69%	0.0007 µM	0.0047 µM
8.12	9.30	–	NC1=N[C@@]2(CS1)c1cc(-c3cccnc3F)ccc1Oc1ncc(C3=CCOCC3)cc12 [Example 97, (S)-3-(3,6-dihydro-2H-pyran-4-yl)-7-(2-fluoropyridin-3-yl)-5′H-spiro[chromeno[2,3-b]pyridine-5,4′-thiazol]-2′-amine]	–	46%	28%	–	–
–	8.96	8.30	CC1(C#Cc2cnc3c(c2)[C@]2(COC(N)=N2)c2cc(-c4cccc(C#N)c4)ccc2O3)COC1 [Example 127, (S)-3-(2′-amino-3-((3-methyloxetan-3-yl)ethynyl)-5′H-spiro[chromeno[2,3-b]pyridine-5,4′-oxazole]-7-yl)benzonitrile]	–	61%	45%	–	–
–	8.96	8.09	NC1=N[C@@]2(CO1)c1cc(-c3cccnc3F)ccc1Oc1c(F)cc(-c3ncccn3)cc12 [Example 128, (S)-4′-fluoro-7′-(2-fluoropyridin-3-yl)-2′-(pyrimidin-2-yl)-5H-spiro[oxazole-4,9′-xanthen]-2-amine]	–	75%	57%	–	–
–	8.82	8.22	Cc1cnc(F)c(-c2ccc3c(c2)[C@@]2(COC(N)=N2)c2cc(N4CCOCC4)cc(F)c2O3)c1 [Example 132, (S)-4′-fluoro-7′-(2-fluoro-5-methylpyridin-3-yl)-2′-morpholino-5H-spiro[oxazole-4,9′-xanthen]-2-amine]	–	54%	45%	–	–
7.92	9.00	–	N#Cc1cccc(-c2ccc3c(c2)[C@@]2(COC(N)=N2)c2cc(N4CCC(F)(F)C4)ncc2O3)c1 [Example 134, (S)-3-(2′-amino-3-(3,3-difluoropyrolidin-1-yl)-5′H-spiro[chromeno[2,3-c]pyridine-5,4′-oxazole]-7-yl)benzonitrile]	–	61%	45%	–	–
–	8.89	8.00	CC1(C)C=C(c2cc3c(cn2)Oc2ccc(-c4cncc(F)c4)cc2[C@@]32COC(N)=N2)CCO1 [Example 135, (S)-3-(6,6-dimethyl-3,6-dihydro-2H-pyran-4-yl)-7-(5-fluoropyridin-3-yl)-5′H-spiro[chromeno[2,3-c]pyridine-5,4′-oxazol]-2′-amine]	–	61%	44%	–	–
8.28	8.96	–	NC1=N[C@@]2(CO1)c1cc(-c3cccnc3)ccc1Oc1cnc(N3CCC(F)(F)C3)cc12 [Example 138, (S)-3-(3,3-difluoropyrrolidin-1-yl)-7-(pyridin-3-yl)-5′H-spiro[chromeno[2,3-c]pyridine-5,4′-oxazol]-2′-amine]	–	67%	48%	–	–

From US8883782B2, “Spiro-tetracyclic ring compounds as beta-secretase modulators and methods of use” (Amgen Inc., priority 2010, dated 2014)
